Laboratory results from ChEMBL document CHEMBL1201862, “PubChem BioAssay data set” (2004).
Active and inactive are the calls of the source.

Experiments:
[1] = molecular target: T1, Calpain-2 catalytic subunit (Sus scrofa, UniProt P43367); assay: m-calpain protease blockers, concentration series – biochemical, fluorogenic peptide substrate, dose response (AID 1420); assay type: functional
T1 sequence (P43367 whole entry): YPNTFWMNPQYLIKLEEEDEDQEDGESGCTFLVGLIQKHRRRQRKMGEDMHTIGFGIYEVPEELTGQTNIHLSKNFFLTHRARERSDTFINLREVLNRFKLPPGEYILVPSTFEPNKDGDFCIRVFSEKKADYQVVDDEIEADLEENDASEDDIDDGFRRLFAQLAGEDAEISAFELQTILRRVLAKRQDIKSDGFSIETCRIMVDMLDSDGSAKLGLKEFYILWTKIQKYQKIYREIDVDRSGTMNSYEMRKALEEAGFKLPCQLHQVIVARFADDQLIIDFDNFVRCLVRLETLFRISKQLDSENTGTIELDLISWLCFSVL

[2] = viability of PTEN-deleted HCT116 cells – cell-based, HCT116 PTEN knockout, dose response (AID 1047); assay type: functional;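 note: HCT116 colon tumor cells with PTEN knocked out; cells exposed to compound for 60 hours before readout; potency for loss of cell viability measured by luminescence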
[3] = viability of HCT116 lacking mutant beta-catenin – cell-based, human colon tumor, dose response (AID 1045); assay type: functional;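 note: HCT116 colon tumor cells with beta catenin knocked out; cells exposed to compound for 60 hours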
[4] = Luminescence Cell-Based Dose Retest to Confirm Inhibitors of Cancer Stem Cells. [Related pubchem assays (depositor defined):AID2717, AID2721]; assay type: functional; settings: Homo sapiens
cells [5] = assay type: functional, cell-based
[6] = molecular target: FAD-linked sulfhydryl oxidase ALR (Homo sapiens, UniProt P55789); assay: ALR-catalysed DTT oxidation blockers – biochemical, H2O2 detection, luminescence, cherry-pick, dose response (AID 493248)
FAD-linked sulfhydryl oxidase ALR, sequence (P55789 whole entry): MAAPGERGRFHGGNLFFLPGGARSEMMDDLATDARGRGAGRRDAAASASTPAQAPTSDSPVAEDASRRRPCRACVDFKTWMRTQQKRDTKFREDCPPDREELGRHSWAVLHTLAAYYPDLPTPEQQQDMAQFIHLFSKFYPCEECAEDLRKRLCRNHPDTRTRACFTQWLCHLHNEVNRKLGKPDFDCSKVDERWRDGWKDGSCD

cells [7] = assay type: functional, cell-based; remark: listed apart in the source
[8] = viability of uninfected HEp-2 cells – cell-based, HTS, cytotoxicity control for RSV inhibitor project, dose response (AID 2410); assay type: functional; settings: human respiratory syncytial virus
Cytochrome P450 2C19 = Cytochrome P450 2C19 (Homo sapiens, UniProt P33261); assay: Cytochrome panel assay with activity outcomes. Panel member name: p450-cyp2c19 Compounds with AC50 equal or less than 10 uM are considered active; assay type: functional; settings: read-out: AC50
Cytochrome P450 2C19, sequence (P33261 whole entry): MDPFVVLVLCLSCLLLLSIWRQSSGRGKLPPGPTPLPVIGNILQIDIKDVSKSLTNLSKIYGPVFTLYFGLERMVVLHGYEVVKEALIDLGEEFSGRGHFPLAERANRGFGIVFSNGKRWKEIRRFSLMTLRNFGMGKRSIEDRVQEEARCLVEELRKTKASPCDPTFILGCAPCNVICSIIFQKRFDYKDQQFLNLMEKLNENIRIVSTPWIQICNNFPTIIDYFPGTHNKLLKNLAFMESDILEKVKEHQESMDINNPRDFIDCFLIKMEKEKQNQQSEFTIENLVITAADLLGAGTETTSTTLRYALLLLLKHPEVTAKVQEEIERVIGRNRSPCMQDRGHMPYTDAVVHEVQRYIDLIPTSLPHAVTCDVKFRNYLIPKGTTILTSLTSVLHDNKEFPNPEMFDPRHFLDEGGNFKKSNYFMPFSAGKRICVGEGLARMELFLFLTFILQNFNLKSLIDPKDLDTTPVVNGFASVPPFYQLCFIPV

[9] = NIH-3T3 fibroblast cytotoxicity, dose response, cytotoxicity control, cell-based, fluorescence, Alamar Blue, secondary assay (AID 2327); assay type: functional;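 note: NIH-3T3 mouse fibroblasts cultured with fluconazole at 8 µg/mL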
[10] = microbe, parasite or virus in culture; assay type: functional; settings: Mycobacterium tuberculosis
[11] = fluconazole-exposed Candida albicans growth modulators – fluorescence, retest, confirmation (AID 2467); assay type: functional, cell-based
Streptococcus = assay: GAS UMAA2166 growth inhibition – luminescence, BacTiterGlo, counter-screen for streptokinase expression inhibitor project, dose response (AID 1915); assay type: functional, organism-based;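 note: potency for reduction of bacterial viability or growth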
[12] = test system: Streptococcus sp. 'group A'; assay: Streptococcus pyogenes SK(-)GAS viability under kanamycin – luminescence, BacTiterGlo, confirmation, counter-screen for streptokinase expression inhibitor project, dose response (AID 1900); assay type: functional, organism-based
Streptokinase A = molecular target: T2, Streptokinase A (Streptococcus pyogenes serotype M1, UniProt P10520); assay: viability-normalized secreted streptokinase activity reduction – plasminogen activation absorbance, OD405, dose response (AID 1914); assay type: functional, Streptococcus pyogenes M1 GAS;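 note: secreted streptokinase activity via plasminogen activation per viability signal from cell pellet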
T2 sequence (P10520 whole entry): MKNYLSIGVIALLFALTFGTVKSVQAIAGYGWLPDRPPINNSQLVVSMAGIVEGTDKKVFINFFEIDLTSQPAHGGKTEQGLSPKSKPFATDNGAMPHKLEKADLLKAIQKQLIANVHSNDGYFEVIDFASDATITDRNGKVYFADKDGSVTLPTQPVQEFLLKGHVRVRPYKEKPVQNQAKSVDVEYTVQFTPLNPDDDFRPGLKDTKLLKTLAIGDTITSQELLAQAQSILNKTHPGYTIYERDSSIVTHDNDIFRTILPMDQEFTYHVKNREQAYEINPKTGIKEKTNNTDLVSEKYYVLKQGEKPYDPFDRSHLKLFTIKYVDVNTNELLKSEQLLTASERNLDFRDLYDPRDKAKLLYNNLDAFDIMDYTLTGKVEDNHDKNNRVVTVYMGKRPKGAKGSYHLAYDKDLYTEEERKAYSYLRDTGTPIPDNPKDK

[13] = Trypanosoma cruzi growth suppression in host cells – NIH3T3 host cells, beta-gal luminescence, confirmation (AID 2044); assay type: functional, cell-based;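 note: intracellular parasites grown in NIH/3T3 mouse fibroblasts as host cells; luminescent beta-galactosidase reporter signal from transgenic T. cruzi replicating inside host cells; inhibitors lower the luminescence signal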
[14] = NIH3T3 cell viability loss – ATP luminescence, mouse fibroblasts, counter-screen, dose response (AID 2010); assay type: functional, cell-based;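 note: cells exposed to compound for about 90 hours before reading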
INS1 = assay: INS-1E survival protection against cytokine death – cell-based, luminescence, retest, dose response (AID 449756); assay type: functional; settings: Rattus norvegicus;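 note: cell death triggered by IL-1 beta plus TNF-alpha plus IFN-gamma mixture; protective hits raise ATP signal compared with cytokine alone wells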
Paired box protein Pax-8 = Paired box protein Pax-8 (Homo sapiens, UniProt Q06710); assay: PAX8 transcriptional activity inhibition in RMG-I – RMG-I cells, luciferase, cherry-pick, dose response (AID 687027); assay type: functional, cell-based;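 note: luciferase reporter driven by Pax8 target thyroperoxidase promoter measured by SteadyGlo luminescence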
Paired box protein Pax-8, sequence (Q06710 whole entry): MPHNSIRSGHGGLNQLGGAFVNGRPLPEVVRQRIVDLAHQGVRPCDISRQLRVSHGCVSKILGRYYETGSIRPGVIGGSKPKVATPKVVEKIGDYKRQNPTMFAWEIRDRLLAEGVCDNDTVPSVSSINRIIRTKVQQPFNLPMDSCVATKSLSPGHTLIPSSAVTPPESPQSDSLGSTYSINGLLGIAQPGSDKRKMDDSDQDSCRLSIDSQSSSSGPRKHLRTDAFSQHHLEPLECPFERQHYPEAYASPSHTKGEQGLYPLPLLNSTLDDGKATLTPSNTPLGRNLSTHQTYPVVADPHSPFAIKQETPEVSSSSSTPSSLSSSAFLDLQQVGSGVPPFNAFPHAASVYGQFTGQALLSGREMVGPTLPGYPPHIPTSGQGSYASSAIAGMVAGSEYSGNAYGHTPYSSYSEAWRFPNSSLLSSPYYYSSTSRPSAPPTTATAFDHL

[15] = alpha-synuclein stem-loop luciferase translation blockers – H4 neuroglioma cells, luminescence, confirmation (AID 1988); assay type: functional, cell-based
[16] = luciferase reporter signal suppression in cells – H4 neuroglioma cells, luminescence, dose response (AID 1990); assay type: functional, cell-based
[17] = Luminescence Cell-Based Dose Response HTS to Identify Inhibitors of 5'UTR Stem-Loop Driven Prion Protein mRNA Translation in H4 Neuroglioblastoma Cells. [Related pubchem assays: 1827 (Project Summary), 1813 (Primary HTS)]; assay type: functional
[18] = molecular target: T3, Heat shock factor protein 1 (Mus musculus, UniProt P38532); assay: decrease of HSF1-responsive luciferase luminescence – cell-based, NIH3T3, dose retest, confirmation (AID 2382); assay type: functional;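 note: NIH3T3 fibroblasts with HSF1-driven luciferase reporter stressed by proteasome inhibitor MG132; luminescence from HSF1-driven luciferase expression after 8 hours of MG132 stress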
T3 sequence (P38532 whole entry): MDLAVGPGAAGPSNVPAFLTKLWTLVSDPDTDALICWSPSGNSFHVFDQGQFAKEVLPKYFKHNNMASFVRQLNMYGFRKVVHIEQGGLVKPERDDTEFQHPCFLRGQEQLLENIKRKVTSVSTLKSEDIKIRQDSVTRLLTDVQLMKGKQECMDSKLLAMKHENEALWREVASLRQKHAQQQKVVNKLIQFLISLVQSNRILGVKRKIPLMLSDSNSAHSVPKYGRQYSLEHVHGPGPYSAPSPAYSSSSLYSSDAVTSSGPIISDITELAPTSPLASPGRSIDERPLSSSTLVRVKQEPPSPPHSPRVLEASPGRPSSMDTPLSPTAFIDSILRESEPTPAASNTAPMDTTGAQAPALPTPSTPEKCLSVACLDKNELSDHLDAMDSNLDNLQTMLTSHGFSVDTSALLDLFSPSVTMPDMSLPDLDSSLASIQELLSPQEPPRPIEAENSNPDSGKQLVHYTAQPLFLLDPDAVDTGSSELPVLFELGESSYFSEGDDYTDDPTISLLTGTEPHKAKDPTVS

[19] = P. falciparum Dd2 growth inhibitors, dose response, SYBR Green, cherry-picked samples (AID 1159567); assay type: functional, cell-based

CN(CC(=O)Nc1ccc(N2CCOCC2)cc1)Cc1cc(=O)n2ccsc2n1
IC50 [1]: < 0.4 µM (not active)

O=C(NC(c1ccc(Cl)cc1)c1c(O)ccc2ccccc12)c1ccccc1 (centres undefined)
EC50 [2]: 7.75 µM (active)
EC50 [3]: 8.69 µM (active)
AC50 [4]: 1.23 µM (active)

FC(F)(F)c1ccc(-c2n[nH]c(S)n2)cc1
EC50 (cells [5]): > 350 µM (not active)
AC50 [6]: 0.248 µM (active)
EC50 (cells [7]): > 350 µM (not active)

C=CCn1c(Sc2nc(C)cs2)nc2c1c(=O)[nH]c(=O)n2C
CC50 [8]: 32.4 µM (active)
IC50 [1]: > 50 µM (not active)

CC(=O)Nc1ccc(NC(=O)CC2Nc3cccc4cccc(c34)NC2=O)cc1 (centres undefined)
AC50 [6]: 7.99 µM (active)
AC50 (Cytochrome P450 2C19): 39.8 µM (inconclusive)

CCN1CCN(CC(=O)Nc2sc3c(c2C#N)CCC(C)C3)CC1 (centres undefined)
EC50 [2]: 15.8 µM (active)
EC50 [3]: 17.9 µM (active)

N#Cc1c(Cl)cccc1Oc1ccc(S(=O)(=O)Nc2ccccc2)cc1
IC50 [1]: > 50 µM (not active)

Clc1ccccc1-c1nnc2sc(-c3cccs3)nn12
IC50 [1]: 2.83 µM (not active)

CC1CCCN(Cc2c(O)ccc3c(O)c(-c4nc5ccccc5s4)c(=N)oc23)C1 (centres undefined)
EC50 [2]: 13.9 µM (active)
EC50 [3]: 18.9 µM (active)
EC50 [9]: 76.2 µM (active)
CC50 [10]: 17.2 µM (active)
EC50 [11]: > 38 µM (not active)

Cc1cccc(C)c1OCC(O)CN1CCC(CN2C(=O)c3cccc4cccc(c34)C2=O)CC1 (centres undefined)
EC50 [2]: 11.7 µM (active)
EC50 (Streptococcus): 16.7 µM (active)
CC50 [8]: 7.63 µM (active)
EC50 [3]: 9.53 µM (active)
EC50 [12]: 9.04 µM (active)
CC50 [10]: 23.4 µM (active)
EC50 (Streptokinase A): 38.2 µM (active)

O=C(Nc1ccccc1NC(=O)NC1CCCCC1)NC1CCCCC1
EC50 [2]: 15.1 µM (active)
EC50 [3]: 17.8 µM (active)

CC(=O)c1ccc(S(=O)(=O)Nc2cccc(S(=O)(=O)NC3=NCCC3)c2)cc1
AC50 [6]: > 100 µM (inactive)

CN(CCCNC(=O)c1cc2c(Cl)nc3ccccc3c2s1)Cc1ccccc1
EC50 [13]: 771 nM (active)
CC50 [10]: 22.2 µM (active)
EC50 [14]: > 60 µM (not active)

Cc1ccc(NC(=O)c2ccc(C(C)(C)C)cc2)cc1-n1cnnn1
IC50 [1]: 0.895 µM (not active)

CNc1ccccc1C(=O)OC(C)C(=O)Nc1ccc(Cl)cn1 (centres undefined)
CC50 [10]: 25.3 µM (active)

CCCCCc1cc(=O)oc2c(C(CCN3CCCCC3)c3ccc4c(c3)OCO4)c(OC)cc(OC)c12 (centres undefined)
AC50 [4]: 6.41 µM (active)
AC50 (INS1): 8 µM (active)
AC50 (Paired box protein Pax-8): 13.4 µM (active)

CC(C)Cn1c(N)c(C(=O)COC(=O)/C=C/c2cccs2)c(=O)n(C)c1=O
IC50 [1]: > 50 µM (not active)

CC1(c2ccc(O)cc2)NC(=O)N(c2ccccc2)N1 (centres undefined)
AC50 [6]: 0.015 µM (active)
AC50 [4]: 4.14 µM (active)

COc1ccc(C)cc1Nc1n[n+](-c2ccccc2)c(-c2c(Cl)cccc2Cl)s1
EC50 [15]: > 120 µM (not active)
EC50 [16]: > 120 µM (not active)
AC50 (INS1): 4.16 µM (active)
CC50 [10]: 9.91 µM (active)
EC50 [17]: 12.6 µM (active)

O=C(/C=C/c1c(F)cccc1Cl)c1ccc(F)cc1
CC50 [10]: > 40 µM (active)

OC(COc1cccc2ccccc12)CN1CCN(c2ccccc2Cl)CC1 (centres undefined)
IC50 [1]: 3.82 µM (not active)

O=C(CNCc1ccccc1)Nc1ccc(Oc2ccccc2)cc1
IC50 [1]: > 50 µM (not active)

O=C(CN1C(=O)c2ccccc2C1=O)Nc1ccc(-c2nc3ccccc3o2)cc1
IC50 [1]: 17.9 µM (not active)

COc1ccc(N2CCN(C(CNC(=O)C(C)C)c3ccc4c(c3)OCO4)CC2)cc1 (centres undefined)
AC50 [6]: 4.01 µM (active)

Nc1ccccc1C#Cc1ccc2[nH]ccc2c1
AC50 [6]: 14.9 µM (active)

COc1cccc(S(=O)(=O)N2CC[C@@H]3[C@H](CO)Nc4ccc(C5=CCCCC5)cc4[C@@H]32)c1
AC50 (Paired box protein Pax-8): 10 µM (active)

C[C@@H]1CN([C@H](C)CO)C(=O)c2cc(NS(=O)(=O)c3ccc(F)cc3)ccc2O[C@@H](C)CCCCO[C@H]1CN(C)Cc1ccccc1
AC50 (Paired box protein Pax-8): 17.2 µM (active)

C[C@@H]1CN([C@@H](C)CO)S(=O)(=O)c2ccc(C#Cc3ccc(F)cc3)cc2O[C@@H]1CN(C)C(=O)NC1CCCCC1
AC50 (Paired box protein Pax-8): 8.43 µM (active)

C(=N\Nc1ccc2ccccc2n1)/c1ccc2c(c1)OCCO2
EC50 [18]: < 160 nM (active)
CC50 [10]: > 40 µM (active)

Cc1c(/C=N\NC(=O)c2ccc(F)cc2)cnn1C
AC50 [6]: 4.3 µM (active)

CC(/C=N/n1c(S)nnc1-c1ccccn1)=C\c1ccccc1
AC50 [6]: 5.86 µM (active)

C/C(=N/NC(=O)c1cc(-c2cccc([N+](=O)[O-])c2)[nH]n1)c1ccc(Cl)cc1
IC50 [1]: 13.6 µM (not active)

Cc1ccc2nc(C)cc(N/N=C/c3cccnc3)c2c1
AC50 [6]: 6.08 µM (active)

S=C(NCc1ccco1)N/N=C/c1ccccc1Cl
IC50 [1]: 2.44 µM (not active)

COc1ccc2c3c([nH]c2c1)[C@@H](CO)N(S(C)(=O)=O)CC31CCN(Cc2cccc(F)c2)CC1
AC50 [19]: 4.86 µM (active)

O=C(c1ccccn1)N1CC(=O)N2[C@H](CO)[C@@H](c3ccc(C#CCc4ccccc4)cc3)[C@@H]2C1
AC50 [19]: 6.31 µM (active)

N#C[C@@H]1[C@H](c2ccccc2/C=C/c2ccccc2)[C@H](CO)N1S(=O)(=O)c1ccc(F)cc1
AC50 [19]: 6.19 µM (active)

COc1cccc(CN2[C@@H]3CNC[C@H]2[C@H]3c2ccc(-c3ccccc3OC)cc2)c1
AC50 [19]: 5.81 µM (active)

CCCC(=O)N1CC2(C1)CN(Cc1ccc(Cl)cc1)[C@H](CO)c1[nH]c3cc(OC)ccc3c12
AC50 [19]: 6.65 µM (active)

OC[C@H]1CC[C@@H]2O[C@H](CCc3ccc(-c4ccc(F)cc4)cc3)[C@H](n3cc(C4CC4)nn3)C[C@@H]2O1
AC50 [19]: 5 µM (active)

CCNC(=O)c1cc2c(c(-c3cccc(-c4cc5ccccc5o4)c3)n1)[C@@H](CCO)N(C(=O)NC(C)C)C2
AC50 [19]: 6.29 µM (active)
